Measurements published in patent publication US5128242A, “Hypothalamic polypeptides with adenylate cyclase stimulating activity” (The Administrators of the Tulane Educational Fund, priority 1989, dated 1992).
Entries after “also recorded” stand apart in the source; their conditions may differ. Ends that are not written are not given here.

Key:
[1] = tested on: adenylate cyclase; settings: rat pituitary cell cultures
Method: Primary monolayer rat anterior pituitary cell culture was prepared as described previously (Culler et al., 1984). Anterior pituitaries from CD strain female rats of approximately 200 g bw (Charles River Breeding Labs, Wilmington, Mass.) at a random stage of estrous cycle were enzymatically dispersed with collagenase Type II and DNAse II. Dispersed cells were collected by centrifugation and washed three times with HEPES buffer and finally suspended in Dulbecco,s modified Eagle's medium (DMEM) containing 10% horse serum, 2.5% fetal calf serum and 1% antibiotic antimycotic solution (Gibco/Life Technologies, Grand Isle, NY) The cells are plated in 24-multiwell tissue culture plates (Falcon, Oxnard, Calif.) at a density of 1.5×10^5 cells/ml/well, and then incubated at 37° C. in a water-saturated atmosphere of 95% air 5% CO2 for 4 days. Prior to acute stimulation, cultured cells were incubated for 3 hr in serum-free DMEM with two changes of the medium. The cells were then incubated for 3 hr in 0.5 ml of HEPES-buffered DMEM containing test materials. Ascorbic acid (2.5×10^-4 M) and 0.25% BSA were routinely added to the medium during assay incubation in order to prevent possible oxidation and adsorption of test samples. […]
Cyclic AMP in the culture media was determined by RIA as described by Harper and Brooker (J. Cyclic Nucleo. Res. 1:207, 1975). […]

[2] = tested on: rat pituitary cell cultures; assay: Intracellular cAMP accumulation in cultured pituitary cells; assay type: cell-based; settings: temporal changes, concentration not given
From the text: FIG. 6a. Intracellular cAMP accumulation in cultured pituitary cells.
We also determined temporal changes in intracellular cAMP levels in rat pituitary cell cultures.

[3] = tested on: arterial blood pressure; assay: Determination of depressor activity (arterial blood pressure) in urethane-anesthetized rats; assay type: in vivo, rat; settings: for vasodepressor activity: urethane-anaesthetized rats, dose range 0.33 nmole to 1.0 nmole
Method: Arterial blood pressure was measured in urethane (150 mg/100 g ip) anesthetized adult male rats. Polyethylene tubing (PE50) which was connected with a pressure transducer P-1000 B (Narco Bio-Systems) was inserted into the femoral artery. Blood pressure was recorded using Narcotrace 40. Another polyethylene tube (PE50) was inserted into a femoral vein for injection of test materials dissolved in 0.5 ml 0.9% saline.

[4] = tested on: astrocytes; assay: Intracellular cAMP accumulation in cultured astrocytes; assay type: cell-based, rat; settings: for intracellular cAMP response in astrocytes: 10^-9 M added to culture medium
Method: FIG. 6b. Intracellular cAMP accumulation in cultured astrocytes.
(§1) For studies on neurons, rat neuronal cell cultures were prepared by the method described by Raizada et al. (Raizada et al. Am. J. Physiol. 247:C364, 1984). Astrocyte cultures were prepared using the single-step transfer method as described by Clarke et al. (Clark et al., J. Biol. Chem. 259:11672, 1984). […] Intracellular cAMP levels remained elevated for at least 60 minutes in astrocytes, but began to decrease after 10 min in neurons.

[5] = tested on: superfused pituitary cells; assay: Superfusion method using rat pituitary cell column: release of pituitary hormones; assay type: cell-based
Method: FIGS. 5A-5D. The effect of synthetic PACAP38 on the release of pituitary hormones from superfused pituitary cells. A pituitary cell superfusion method to determine the hypophysiotropic activity of samples was conducted as reported by Vigh and Schally. The peptide was applied as a 3 min pulse. The numbers at top indicate; 1,7: 100 mM KCl, 2: 10^-10 M PACAP38, 3: 10^-9 M PACAP38, 4: 10^-8 M PACAP38, 5: 10^-7 M PACAP38, 6: 10^-6 M PACAP38. 0.9 ml fractions were collected every 3 min.
A pituitary cell superfusion method to determine the hypophysiotropic activity of samples was conducted as reported by Vigh and Schally (1984). Pituitaries obtained from 3 adult female rats were cut into small pieces and incubated in a Dubnoff incubator for 45 min at 37° C. in 10 ml of oxygenated Medium 199 (Gibco/Life Technologies) containing 0.5% collagenase (Sigma Type I), 0.25% BSA and […] gentamicin sulphate (Sigma). After this incubation, there were no apparent changes in the pituitary tissue, but the fragments could be easily dispersed into single cells by repeated suction and expulsion from a Pasteur pipet. After 30 to 60 pipet operations, the tissue fell apart. The cell suspension was centrifuged at room temperature for 10 min at 100×g. The cell pellet was then resuspended in 1.0 ml medium. A small aliquot was diluted to count the cells, and the remainder of the suspension was divided into 2 equal volumes. Each volume (containing about 5×10^6 cells and usually between 3.5 and 7.0×10^6) was mixed with 0.5 ml Sephadex G-15 which had been equilibrated with previously oxygenated medium. The mixture of pituitary cells and Sephadex was transferred into 2 chambers of the superfusion apparatus and perfused with the medium. The medium was always freshly prepared in a way similar to that for enzymatic dispersion, omitting the collagenase, then passed through a Millipore filter, and continuously gassed with a mixture of O2 (95%) and CO2 (5%) during the experiment. The flow rate of the medium through the superfusion system was controlled by a multichannel pump (Gilson Minipulse Type HP-8) which was placed behind the superfusion chamber; the tuning of the lower plunger was connected to the pump, and from there to a two-channel fraction collector. Thus, the system was operated with negative pressure in order to get fewer fluctuations in the flow rate. Samples were applied as a 3 min pulse followed by the medium superfusion. Superfusate was collected as 3 min fractions, 0.9 ml per fraction.

[6] = tested on: neurons; assay: Intracellular cAMP accumulation in cultured neurons; assay type: cell-based, rat; settings: for intracellular cAMP response in neurons: 10^-9 M added to culture medium
Method: FIG. 6c. Intracellular cAMP accumulation in cultured neurons.
as §1

[7] = tested on: rat pituitary fragments; settings: in vitro; Arimura et al. 1984; cited from earlier work
[8] = tested on: neurons; settings: De Brenneman et al. 1987, 1988; cited from earlier work
[9] = superfused rat pituitary cells, hormone release

CC[C@H](C)[C@H](NC(=O)CNC(=O)[C@H](CC(=O)O)NC(=O)[C@H](CO)NC(=O)[C@@H](N)Cc1c[nH]cn1)C(=O)N[C@@H](Cc1ccccc1)C(=O)N[C@H](C(=O)N[C@@H](CC(=O)O)C(=O)N[C@@H](CO)C(=O)N[C@@H](Cc1ccc(O)cc1)C(=O)N[C@@H](CO)C(=O)N[C@@H](CCCNC(=N)N)C(=O)N[C@@H](Cc1ccc(O)cc1)C(=O)N[C@@H](CCCNC(=N)N)C(=O)N[C@@H](CCCCN)C(=O)N[C@@H](CCC(N)=O)C(=O)N[C@@H](CCSC)C(=O)N[C@@H](C)C(=O)N[C@H](C(=O)N[C@@H](CCCCN)C(=O)N[C@@H](CCCCN)C(=O)N[C@@H](Cc1ccc(O)cc1)C(=O)N[C@@H](CC(C)C)C(=O)N[C@@H](C)C(=O)N[C@@H](C)C(=O)N[C@H](C(=O)N[C@@H](CC(C)C)C(N)=O)C(C)C)C(C)C)[C@@H](C)O [PACAP27NH2]
ACSA activity compared with native PACAP38 ([1]; cAMP in medium after 3 hr incubation): similar, if not greater | intracellular cAMP accumulation (extent and pattern) [2]: comparable extent and pattern of cAMP accumulation

CC[C@H](C)[C@H](NC(=O)CNC(=O)[C@H](CC(=O)O)NC(=O)[C@H](CO)NC(=O)[C@@H](N)Cc1c[nH]cn1)C(=O)N[C@@H](Cc1ccccc1)C(=O)N[C@H](C(=O)N[C@@H](CC(=O)O)C(=O)N[C@@H](CO)C(=O)N[C@@H](Cc1ccc(O)cc1)C(=O)N[C@@H](CO)C(=O)N[C@@H](CCCNC(=N)N)C(=O)N[C@@H](Cc1ccc(O)cc1)C(=O)N[C@@H](CCCNC(=N)N)C(=O)N[C@@H](CCCCN)C(=O)N[C@@H](CCC(N)=O)C(=O)N[C@@H](CCSC)C(=O)N[C@@H](C)C(=O)N[C@H](C(=O)N[C@@H](CCCCN)C(=O)N[C@@H](CCCCN)C(=O)N[C@@H](Cc1ccc(O)cc1)C(=O)N[C@@H](CC(C)C)C(=O)N[C@@H](C)C(=O)N[C@@H](C)C(=O)N[C@H](C(=O)N[C@@H](CC(C)C)C(=O)NCC(=O)N[C@@H](CCCCN)C(=O)N[C@@H](CCCNC(=N)N)C(=O)N[C@@H](Cc1ccc(O)cc1)C(=O)N[C@@H](CCCCN)C(=O)N[C@@H](CCC(N)=O)C(=O)N[C@@H](CCCNC(=N)N)C(=O)N[C@H](C(=O)N[C@@H](CCCCN)C(=O)N[C@@H](CC(N)=O)C(=O)N[C@@H](CCCCN)C(N)=O)C(C)C)C(C)C)C(C)C)[C@@H](C)O [PACAP38]
depressor activity ([3]; anesthetized rats, injection into femoral vein): significant, but somewhat weaker | vasodepressor activity [3]: comparable vasodepressor activity | time intracellular cAMP levels remained elevated, astrocytes ([4]; 10^-9 M): at least 60 minutes | time of first cAMP increase after addition, astrocytes ([4]; 10^-9 M): as early as one minute | intracellular cAMP response in astrocytes [4]: extraordinarily large | adenylate cyclase stimulating activity relative to VIP ([1]; fold of VIP): at least 100 times | FSH release ([5]; 3 min pulse, 10^-10 to 10^-6 M): not altered; also recorded: not apparent | LH release ([5]; 3 min pulse, 10^-10 to 10^-6 M): LH response was linear | TSH release ([5]; 3 min pulse, 10^-10 to 10^-6 M): not altered; also recorded: not apparent | dose of maximum effect (bell-shaped dose response curve) [5, 9]: 10^-8 M | minimum effective dose [5, 9]: 10^-10 M | time after which intracellular cAMP began to decrease, neurons ([6]; 10^-9 M): 10 min | time of first cAMP increase after addition, neurons ([6]; 10^-9 M): as early as one minute | intracellular cAMP response in neurons [6]: increased intracellular cAMP | intracellular cAMP accumulation (extent and pattern) [2]: comparable extent and pattern of cAMP accumulation

CRH: known hypothalamic releasing hormone (corticotropic releasing hormone) used for comparison (SEEPPISLDLTFHLLREVLEMARAEQLAQQAHSNRKLMEII; ends and bridges not checked; UniProt P06850 154-194, looked up)
intracellular cAMP accumulation (extent and pattern) [2]: comparable extent and pattern of cAMP accumulation

HP: ovine hypothalamic peptide, partial N-terminal sequence His-Ser-Asp-Gly-Ile-Phe-Thr-Asp-Ser-Tyr-Lys-Arg-Tyr-Asn-Lys-Glu-Met-Ala-Lys- (HSDGIFTDSYKRYNKEMAK; printed: His-Ser-Asp-Gly-Ile-Phe-Thr-Asp-Ser-Tyr-Lys-Arg-Tyr-Asn-Lys-Glu-Met-Ala-Lys-)
GH release from rat pituitary fragments [7]: stimulated GH release

growth hormone releasing hormone (YADAIFTNSYRKVLGQLSARKLLQDIMSRQQGESNQERGARARL; ends and bridges not checked; UniProt P01286 32-75, looked up) [GRH]
intracellular cAMP accumulation (extent and pattern) [2]: greatest accumulation of intracellular cAMP

vasoactive intestinal peptide [VIP, reference compound]
vasodepressor activity [3]: comparable vasodepressor activity | intracellular cAMP response in astrocytes [4]: did not induce an appreciable stimulation of cAMP | protection of neurons from gp120-induced cell death [8]: capable of protecting neurons from cell death | intracellular cAMP response in neurons [6]: did not induce an appreciable stimulation of cAMP | intracellular cAMP accumulation (extent and pattern) [2]: little effect
